Assay: mn = molality of the nth substance listed, in mol/kg
Details: Liquid, Capillary tube (Ostwald / Ubbelohde) method

[I-].[Li+] [lithium iodide] + O
viscosity [mPa·s]
Details	100 kPa	10000 kPa	40000 kPa
345.43 K, m1 = 2.16	–	–	0.5015
347.42 K, m1 = 0.2832	0.394	0.3976	0.4052
348.24 K, m1 = 3.089	0.5101	0.5144	0.5255
363.94 K, m1 = 3.089	0.4275	0.4317	0.4435
364.95 K, m1 = 2.16	0.3905	0.3944	0.4048
367.05 K, m1 = 0.2832	0.3119	0.3142	0.3227
368.75 K, m1 = 1.605	0.3544	0.358	0.3678
368.79 K, m1 = 0.16	0.3014	0.3044	0.3128
369.35 K, m1 = 0.08	0.2968	0.2996	0.3079
369.49 K, m1 = 0.6621	0.3189	0.3222	0.3313
396.7 K, m1 = 0.08	–	0.2301	0.2381
397.72 K, m1 = 2.16	–	0.2921	0.3023
397.82 K, m1 = 0.16	–	0.2304	0.2385
398.32 K, m1 = 0.2832	–	0.2331	0.2414
398.72 K, m1 = 3.089	–	0.3165	0.3278
398.94 K, m1 = 1.605	–	0.2713	0.2809
399.03 K, m1 = 0.6621	–	0.2447	0.2534
421.45 K, m1 = 0.6621	–	0.206	0.2139
422.12 K, m1 = 0.08	–	0.1885	0.1959
422.41 K, m1 = 3.089	–	0.2666	0.277
422.47 K, m1 = 1.605	–	0.2275	0.2363
424.14 K, m1 = 0.2832	–	0.1913	0.1988
424.41 K, m1 = 2.16	–	0.24	0.2494
424.49 K, m1 = 0.16	–	0.1874	0.1947
444.25 K, m1 = 2.16	–	0.2119	0.2206
447.54 K, m1 = 3.089	–	0.2284	0.2383
447.94 K, m1 = 1.605	–	0.1945	0.2029
448.75 K, m1 = 0.16	–	0.1602	0.1674
449.02 K, m1 = 0.08	–	0.1581	0.1648
449.06 K, m1 = 0.6621	–	0.1725	0.1802
449.71 K, m1 = 0.2832	–	0.1622	0.1696
472.45 K, m1 = 0.08	–	0.1387	0.1452
472.92 K, m1 = 0.2832	–	0.1429	0.1501
473.06 K, m1 = 1.605	–	0.1699	0.1784
473.07 K, m1 = 2.16	–	0.1815	0.19
473.46 K, m1 = 0.16	–	0.1397	0.1467
473.71 K, m1 = 3.089	–	0.1992	0.2091
474.98 K, m1 = 0.6621	–	0.1497	0.1572
522.7 K, m1 = 0.16	–	0.1109	0.1182
523.42 K, m1 = 3.089	–	0.1603	0.1711
523.72 K, m1 = 0.08	–	0.1089	0.1163
524.07 K, m1 = 0.2832	–	0.1123	0.1199
524.86 K, m1 = 1.605	–	0.1344	0.1433
525.42 K, m1 = 0.6621	–	0.1185	0.1266
525.49 K, m1 = 2.16	–	0.1435	0.1531

— the NIST ThermoML archive (doi:10.1016/j.tca.2005.08.036)
